Experimental data: US11723987B2, “Double suicide gene vector systems for stem cells” (UNIVERSITY OF MIAMI, priority 2016, dated 2023)
Entries after “also recorded” stand apart in the source; their conditions may differ.

Columns and labels:
[1] = test system: λH1 cells (H1.1 cells); assay: MTT kill curve / pro-drug exposure of undifferentiated suicide-gene modified hESc; format: cell-based, human; conditions: for exposure time after which most λH1 cells die: 10 μM CB1954, 100 μM GCV (FIG. 8c); for ablation of H1.1 cells: after 7 days of exposure (FIG. 2); for sensitivity of undifferentiated modified clones to pro-drug: undifferentiated state
Excerpt: Clones of the hESc line H1 containing both constructs were selected using Puro (for plasmid L) and Neo (for plasmid F). We used electroporation of the linearized plasmids followed by Puro+Neo selection to achieve stable integration of both cassettes (λH1). Integration was confirmed by PCR, and positive clones were expanded and stocked in liquid N2. ˜25 double resistant clones were handpicked, expanded under antibiotic selection and frozen in liquid N2. A typical undifferentiated colony of one such clone, propagated in Puro+Neo to maintain selective pressure, was imaged. […] Aliquots were screened by genomic PCR to confirm the integration of both constructs (data not shown). qRT-PCR was performed to determine which clones had higher transgene (HSV-TK and NTR) expression. Clone A (H1.1 from now on) was selected for further testing based on the results of these assays. A kill curve using different dosages for GCV (0.01 to 1000 μM) and CB1954 (0.1 to 300 μM) was done for H1.1. Cell death was quantified by MTT assays on H1.1 and the parental wild-type H1 line. These assays helped us determine the optimal concentration of each pro-drug that leads to complete ablation of undifferentiated H1.1 cells while preserving the viability of the parental line within 7 days. Such concentration was in the range of 10-100 μM for GCV and 50-100 μM for CB1954, as previously reported in the literature for other cell types^26,54,55. The integration of these constructs had no detectable effects in terms of pluripotency marker expression (TRA-1-60, SSEA3, SSEA4, Oct3/4, Nanog) vs. the unmodified parental line H1, as determined by qRT-PCR, immunofluorescence and FACS analyses (data not shown).
A kill curve using different dosages for GCV (0.01 to 1000 μM) and CB1954 (0.1 to 300 μM) was done for λH1 and the parental H1 lines. Cell death was quantified by MTT [3-(4,5-dimethylthiazol-2-yl)-2,5-diphenyltetrazolium bromide] assays, which helped us determine the optimal concentration of each pro-drug that leads to ablation of undifferentiated λH1 cells while preserving the viability of the parental line within 7 days. Such concentration was in the range of 10-100 μM for both GCV and CB1954 (FIG. 8a), as previously reported in the literature for other cell types (21, 22). We used 10 μM for CB1954 and 100 μM of GCV for all subsequent experiments.
hESc (H1, National Stem Cell Registry #WA01, passage 35-45) were cultured as described in Schuldiner et al., PNAS USA 97: 11307-11312 (2000) using mTeSR™ (STEMCELL Technologies, Vancouver, Canada). […] MTT (3-(4,5-dimethylthiazol-2-yl)-2,5-Diphenyltetrazolium Bromide) is a reagent which is converted from a soluble tetrazolium to its insoluble formazan form via the activity of mitochondrial NAD(P)H-dependent oxidoreductase activity. This can be used to evaluate growth and proliferation of hESC colonies. MTT growth assays were performed for the sensitivity of transfected colonies to neomycin, puromycin, GCV and CB1954 at varying concentrations as previously described.

[2] = test system: parental H1 hESc line; assay: MTT kill curve / pro-drug exposure of parental unmodified hESc; format: cell-based, human; conditions: up to 7 days of exposure
Excerpt: Clones of the hESc line H1 containing both constructs were selected using Puro (for plasmid L) and Neo (for plasmid F). We used electroporation of the linearized plasmids followed by Puro+Neo selection to achieve stable integration of both cassettes (λH1). Integration was confirmed by PCR, and positive clones were expanded and stocked in liquid N2. ˜25 double resistant clones were handpicked, expanded under antibiotic selection and frozen in liquid N2. A typical undifferentiated colony of one such clone, propagated in Puro+Neo to maintain selective pressure, was imaged. […] Cell death was quantified by MTT assays on H1.1 and the parental wild-type H1 line. […] The integration of these constructs had no detectable effects in terms of pluripotency marker expression (TRA-1-60, SSEA3, SSEA4, Oct3/4, Nanog) vs. the unmodified parental line H1, as determined by qRT-PCR, immunofluorescence and FACS analyses (data not shown).
A kill curve using different dosages for GCV (0.01 to 1000 μM) and CB1954 (0.1 to 300 μM) was done for λH1 and the parental H1 lines. Cell death was quantified by MTT [3-(4,5-dimethylthiazol-2-yl)-2,5-diphenyltetrazolium bromide] assays, which helped us determine the optimal concentration of each pro-drug that leads to ablation of undifferentiated λH1 cells while preserving the viability of the parental line within 7 days. […]

[3] = test system: teratomas from λH1 cells; assay: Teratoma formation/elimination in immunodeficient mice xenotransplanted with undifferentiated λH1 cells; format: in vivo, NOD-SCID mice
Description: In order to test whether our suicide gene strategy works as intended in vivo, 5×10^6 undifferentiated λH1 cells were transplanted subcutaneously in the left posterior dorsal flank of 5-6-week-old immunodeficient NOD-SCID mice. These conditions are known to result in the formation of teratomas within 6-9 weeks. Groups were assigned as follows: • 1. Control (no treatment): 3 mice • 2. Peri-transplantation treatment with GCV (40 mg/kg of body weight; 5 days, starting the 7th day after transplantation): 4 mice • 3. Peri-transplantation treatment with CB1954 (20 mg/kg of body weight; 5 days, starting the 7th day after transplantation): 4 mice
As described in the literature, tumors could be manually palpated and measured using calipers in the control group starting at week 6-7. At week 10, one of the mice was euthanized for histopathological characterization of the teratoma. Starting on week 11, we treated the remaining two mice with a combination of GCV and CB1954 to test the hypothesis that pro-drug administration would eliminate already formed tumors.
Two mice in this group were euthanized at this point, showing no evidence of tumors (data not shown). […] This could be due to either the carry-over of residual hESc escapees that survived the initial GCV regimen, or to the development of GCV-resistant mutations in HSV-TK, as described in the literature. To test these two hypotheses, we re-treated these animals with ganciclovir in a 5-day drug/2-day rest regimen for the following two weeks. If the reason for the appearance of these late-onset tumors was resistance to the drug, we should continue to observe tumor growth despite the treatment; in contrast, if they were derived from surviving escapees, we might see tumor recession.
All animal experiments were conducted under the supervision of the University of Miami Institutional Animal Care and Use Committee (IACUC). NOD-SCID mice (5-6 weeks old; Jackson Laboratories, Bar Harbour, Me.) were housed in […] pathogen-free (SPF) conditions at the Division of Veterinary Resources (DVR). 5×10^6 hESc were resuspended in 50 μl mTeSR supplemented with […] of the ROCK inhibitor Y-27632A, and subsequently mixed with undiluted Matrigel of equal volume. The cell suspension was injected into the subcutis of the left posterior dorsal flank of the animal. Tumor growth was monitored with a caliper. Mice were euthanized after the observation/re-treatment period, as described in the Results section. Euthanized animals were subject to general observation. The injection site was inspected and tumor tissue, if present, was collected and processed for histopathological analysis. Lungs, liver spleen and pancreas were also harvested for histological analysis of potential tumor invasion.

[4] = test system: tumor cell lines; conditions: Prof. Searle, personal communication; cited from earlier work

Row | Molecule | exposure time after which most λH1 cells die [1] | ablation of H1.1 cells [1] | sensitivity of undifferentiated modified clones to pro-drug [1] | optimal concentration of pro-drug that leads to ablation of undifferentiated modified cells while preserving the viability of the parental line ([1]; within 7 days, MTT assay, kill curve GCV 0.01 to 1000 μM, CB1954 0.1 to 300 μM) | sensitivity of parental H1 line to pro-drug [2] | tumor detection after peri-transplantation treatment with GCV ([3]; 40 mg/kg, 5 days, starting the 7th day after transplantation, up to week 10) | tumors after GCV re-treatment ([3]; 5-day drug/2-day rest regimen, 2-week course, one tumor >250 mm^3 at initiation (FIG. 11b)) | late-onset tumors in GCV-pretreated mice ([3]; two remaining mice, additional week after week 10) | tumor formation after peri-transplantation treatment with CB1954 ([3]; 20 mg/kg, 5 days, starting the 7th day after transplantation, 11 weeks into the follow-up) | fold lower CB1954 concentration to which cells are sensitized vs the native enzyme [4]
1 | Nc1nc(O)c2ncn(COC(CO)CO)c2n1 [GCV, ganciclovir] | 7 days | 100% | sensitive | 10 to 100 µM | largely insensitive; also recorded: resistant; also recorded: remain largely unscathed | No tumors could be detected | both tumors virtually disappeared | the tumors grew significantly in both mice | – | –
2 | NC(=O)c1cc(N2CC2)c([N+](=O)[O-])cc1[N+](=O)[O-] [CB1954, 5-(aziridin-1-yl)-2,4-dinitrobenzamide] | 3 days | 100% | sensitive | – | largely insensitive; also recorded: resistant; also recorded: remain largely unscathed | – | – | – | none of the animals in the third group (treated in the peri-transplantation period with CB1954) showed signs of tumor formation | –
3 | T41L/N71S: double mutant of E. coli nitroreductase (NTR, nfsB) with enhanced kinetics of CB1954 activation (protein, UniProt P38489 1-217, looked up, variant T41L N71S) Oxygen-insensitive NAD(P)H …: MDIISVALKRHSTKAFDASKKLTPEQAEQIKTLLQYSPSSLNSQPWHFIVASTEEGKARVAKSAAGNYVFSERKMLDASHVVVFCAKTAMDDVWLKLVVDQEDADGRFATPEAKAANDKGRKFFADMHRKDLHDDAEWMAKQVYLNVGNFLLGVAALGLDAVPIEGFDAAILDAEFGLKEKGYTSLVVVPVGHHSVEDFNATLPKSRLPQNITLTEV | – | – | – | – | – | – | – | – | – | ~15 fold
